According to patent US20220228126A1, “USE OF PCBP1 TO GENERATE INDUCED PLURIPOTENT STEM CELLS WHILE INHIBITING ONCOGENESIS” (priority 2019, published 2022):

What was measured:
[1] = system: c-Myc; assay: qRT-PCR quantification of c-Myc expression in cancer stem cells; type: cell-based, human; details: 10 μM niclosamide, DMSO base-line; U87-MG (CSC), DU-145 (CSC), MCF-7 (CSC)
Protocol: (§1) FIG. 28A-B: qRT-PCR quantification of c-Myc and BCL-2 expression in U87-MG(CSC) cells treated with DMSA or 10 μM niclosamide. For calculations: DMSO served as base-line in FIG. 28A. Mock-transfection served as base-line in FIG. 28B. Dotted line marks 1.5 fold change in y-axis, considered the benchmark for statistical significance.
as §1, with “29A-B:” for “28A-B:”, “DU-145 (CSC)” for “U87-MG(CSC)”, “29A.” for “28A.”, “29B.” for “28B.”
as §1, with “30A-B.” for “28A-B:”, “DU-145 (CSC)” for “U87-MG(CSC)”, “30A.” for “28A.”, “30B.” for “28B.”
(§2) U87-MG (CSC) were used to validate the NF-kB pathway. Cells were lysed using RIPA lysis buffer and 35 mcg cell lysate protein (determined by BCA assay) was loaded per well. […] The expression of c-Myc in the cells as measured by Western Blot was normalized. […] RNA levels were measured by qPRC using gene-specific Taqman probes for c-Myc and BCL-2. […]

[2] = system: reactive oxygen species (ROS); details: mechanism shown in FIG. 25; cited from earlier work
[3] = system: BCL-2; assay: qRT-PCR quantification of BCL-2 expression in cancer stem cells; type: cell-based, human; details: 10 μM niclosamide, DMSO base-line; U87-MG (CSC), DU-145 (CSC), MCF-7 (CSC)
Protocol: as §1
as §1, with “29A-B:” for “28A-B:”, “DU-145 (CSC)” for “U87-MG(CSC)”, “29A.” for “28A.”, “29B.” for “28B.”
as §1, with “30A-B.” for “28A-B:”, “DU-145 (CSC)” for “U87-MG(CSC)”, “30A.” for “28A.”, “30B.” for “28B.”
as §2

O=C(Nc1ccc([N+](=O)[O-])cc1Cl)c1cc(Cl)ccc1O [niclosamide]
c-Myc expression [1]: significantly down-regulated
intracellular ROS content [2]: elevates
BCL-2 expression [3]: significantly down-regulated
